# From patent US20240207299A1, “PYRROLOPYRIMIDINE NUCLEOSIDES FOR TREATING OR PREVENTING A SARS-COV-2 INFECTION” (Chimerix, Inc., priority 2021, published 2024)
# “And” between values parts separate entries of the source, which are not always exact repeats. Equal entries are not always repeated. “Also recorded” adds a separate entry of the source. Where two headings read alike, the source gives them in different places.
# Experiments:
# SARS-CoV-2 [1] = settings: MRC5 cells; cited from earlier work
# [2] = system: SARS-CoV-2 (USA-WA1/2020); assay: Neutral red CPE assay in Vero E6 cells; assay type: cell-based; settings: for EC50: Severe acute respiratory syndrome coronavirus 2, Vero C1008, 72 h, read-out: EC50: 50% effective antiviral concentration
# [3] = Cytotoxicity without virus, neutral red, Vero E6 cells; assay type: cell-based; settings: African green monkey; Neutral Red in Vero E6 cells; read-out: CC50: 50% cytotoxic concentration of compound without virus added
# Method: Neutral red assay in Vero E6 cells: Compound dilutions were added to 96-well plates containing 80-100% confluent Vero E6 cells. Cells were incubated with compound for 1-2 hours and then infected with virus at a low MOI to achieve >80% cytopathic effect (CPE) within 5 days of incubation. On day 3 post-infection, CPE was quantitated by neutral red staining. Briefly cells were stained with neutral red for 2 hours, dye removed, and wells rinsed with PBS. The incorporated dye was extracted in Sorensen citrate buffer/ethanol (50:50) and absorbance measured on a spectrophotometer at 540 nm. Compound dilution that reduced virus CPE by 50% (EC50) was calculated along with cytotoxicity in the absence of virus infection (CC50).
# [4] = system: SARS-CoV-2 (USA-WA1/2020); assay: microbe, parasite or virus in culture; assay type: cell-based; settings: Severe acute respiratory syndrome coronavirus 2, Caco-2, 72 h, read-out: EC90: Calculated concentration to reduce virus yield by 1 log (90%) (converted)
# [5] = Cytotoxicity, neutral red, Caco2 cells; assay type: cell-based; settings: human, read-out: CC50: 50% cytotoxic concentration of compound without virus added
# Method: Virus yield reduction assay in Caco-2 cells: The virus yield reduction (VYR) assay set up was similar to that described for the neutral red assay excepting Caco2 cells were used. On day 3 post-infection, cell culture supernatant from wells was collected and infectious virus determined by running a standard endpoint dilution CCID50 assay. Compound dilution that reduced virus yield by 1 log10 was calculated. After collection of cell culture supernatant from wells on day 3 post-infection, plates were stained as described in the neutral red assay to determine CC50 in Caco2 cells.
# [6] = system: SARS-CoV-2 strain USA-WA1 2020 (nLuc reporter); assay: microbe, parasite or virus in culture; assay type: cell-based
# [7] = system: Murine hepatitis virus (MHV) strain MHV-A59 (nLuc reporter); assay: microbe, parasite or virus in culture; assay type: cell-based; settings: Murine coronavirus
# WIV1 = assay: microbe, parasite or virus in culture; assay type: cell-based, bat-derived SARS-like coronavirus; settings: HAE cells
# SHC014 = assay: microbe, parasite or virus in culture; assay type: cell-based, bat-derived SARS-like coronavirus; settings: HAE cells
# uninfected cells = assay: Cytotoxicity in uninfected cells, Sigma TOX7 LDH release; assay type: cell-based; settings: any concentration
# Method: For each assay, percent inhibition was calculated by comparing luciferase activity in cells treated with compound to that in cells treated with vehicle (DMSO) control. Cells were treated with 2.5 μM remdesivir as a control where indicated. Cytotoxicity was measured in uninfected cells in parallel assays using the Sigma TOX7 assay for LDH release.
# SARS-CoV-2 [8] = assay: hACE2 transgenic mouse model of SARS-CoV-2 disease; assay type: in vivo, human ACE2 transgenic mouse; settings: 50 mg/kg once per day intraperitoneal, Day 5
# [9] = Tolerability of single inhaled aerosol dose in healthy BALB/c mice; assay type: in vivo; settings: 5 mg aerosol single dose; dosing period and 8-hour post-dose period
# Method: Tolerability and pharmacokinetics (PK) of a single dose of Compound 1 delivered as aerosol via nebulized liquid in a flow-past pie-chamber model to healthy BALB/c mice. Compound 1 and Compound 60 concentrations were evaluated in plasma and lung tissue were determined.
# Nine female, 9-11 week old BALB/c mice were housed in 9 individual wedges of the inhalation device described above. The input holes of the remaining 3 wedges were taped off to maximize delivery to the 9 mice. A liquid formulation of 5 mg/mL Compound 1 (pH 6.0) was prepared immediately prior to dosing and dispensed into the compressor chamber. The entire contents (9 mL) of the formulation solution were aerosolized and delivered to the 9 mice over a period of 20-30 min. This method delivered 5 mg Compound 1 to each wedge containing a single mouse over the period of nebulization.
# Mice were monitored for adverse clinical signs with special attention given to signs related to eye irritation.
# [10] = individual animals; for Plasma Compound 1 Concentration: 5 mg delivered dose, aerosol, single dose
# in vivo = settings: female, BALB/c, mouse, 5 mg
# Oral GLP toxicology = settings: rats/dogs
# [11] = Genotoxicity / mitotoxicity
# [12] = Healthy volunteer Phase 1 study of oral Compound 1; settings: healthy volunteers
# [13] = Severe acute respiratory syndrome-related coronavirus, HAE
# [14] = 5 mg Compound 1 aerosol, 1 hr post-dose
# [15] = 5 mg Compound 1 aerosol, 3 hr post-dose
# [16] = Mean Plasma Compound 1 Concentration
# [17] = Plasma Compound 1 Concentration
smiles,measurement,setting,value
CNc1nc(N)nc2c1ncn2[C@@H]1O[C@H](COP(=O)(N[C@@H](C)C(=O)OC(C)C)Oc2ccccc2)[C@@H](O)[C@@]1(C)F.CNc1nc(N)nc2c1ncn2[C@@H]1O[C@H](COP(=O)(N[C@@H](C)C(=O)OC(C)C)Oc2ccccc2)[C@@H](O)[C@@]1(C)F.O=S(=O)(O)O (stereo partly shown) [AT-527],antiviral activity against SARS-CoV-2,SARS-CoV-2 [1],lack of antiviral activity against SARS-CoV-2
"Cc1nc(N)c2c(C(N)=O)cn([C@@H]3O[C@H](CO)[C@@H](O)[C@H]3O)c2n1 [Compound 1, 4-amino-7-((2R,3R,4S,5R)-3,4-dihydroxy-5-(hydroxymethyl)tetrahydrofuran-2-yl)-2-methyl-7H-pyrrolo[2,3-d]pyrimidine-5-carboxamide]",SI: Selectivity Index (CC50/EC50),[2]; Neutral Red in Vero E6 cells,>1.8
same,EC50,[2],56000 nM
same,CC50 at 3 days,[3],> 100000 nM
same,EC90,[4],2100 nM
same,CC50 at 3 days,[5],> 100000 nM
same,EC50,"[6]; HAE cells donor code yellow, 8 point dose-response curve, read-out: EC50",940 nM
same,EC50,"[6]; Severe acute respiratory syndrome coronavirus 2, Epithelial cell, read-out: average EC50, SARS-CoV-2 replication",900 nM
same,EC50,"[6]; Severe acute respiratory syndrome coronavirus 2, HAE, HAE cells donor code blue, 5 point dose-response curve, read-out: EC50",550 nM
same,EC50,"[6]; Severe acute respiratory syndrome coronavirus 2, HAE, HAE cells donor code purple, 5 point dose-response curve, read-out: EC50",380 nM
same,EC50,"[6]; Severe acute respiratory syndrome coronavirus 2, HAE, HAE cells donor code yellow, 4 point dose-response curve, read-out: EC50",310 nM
same,EC50,"[6]; Severe acute respiratory syndrome coronavirus 2, HAE, HAE cells donor code yellow, 5 point dose-response curve, read-out: EC50",160 nM
same,EC50,"[6]; Severe acute respiratory syndrome coronavirus 2, HAE, HAE cells donor code yellow, 7 point dose-response curve, read-out: EC50",350 nM
same,EC50,"[6]; Severe acute respiratory syndrome coronavirus 2, HAE, HAE cells donor code yellow, 8 point dose-response curve, read-out: EC50",1100 nM
same,EC50,"[6]; Severe acute respiratory syndrome coronavirus 2, HAE, mean of the HAE cell determinations, read-out: Mean SARS-CoV-2 EC50",540 nM
same,EC50,"[6]; mean of the HAE cell determinations, read-out: Mean SARS-CoV-2 EC50",540 nM
same,EC50,[7],380 nM
same,EC50,WIV1,1010 nM
same,EC50,WIV1; [13],~1000 nM
same,EC50,SHC014,980 nM
same,EC50,SHC014; [13],~1000 nM
same,Effect on cell viability,uninfected cells,No effect on cell viability was seen at any concentration
same,"average Cq, virus genome in lungs (qPCR)","SARS-CoV-2 [8]; started 4-6 h after challenge, vehicle Cq 23",22
same,effect on virus genome levels in lungs / efficacy,SARS-CoV-2 [8],did not alter the virus genome levels detected in lungs; also recorded: not effective at inhibiting SARS-CoV-2
same,Cq of one male mouse with lower than expected virus genome loads,SARS-CoV-2 [8]; likely failure of challenge or RNA recovery,38
same,clinical signs of irritation or intolerability,[9],No clinical signs of irritation or intolerability
same,"Lung tissue Compound 1 concentration, Middle lobe",[10]; [14],1323 pmol/g and 988 pmol/g and 1061 pmol/g
same,"Lung tissue Compound 1 concentration, PC lobe",[10]; [14],986 pmol/g and 673 pmol/g and 430 pmol/g
same,"Lung tissue Compound 1 concentration, Superior lobe",[10]; [14],1867 pmol/g and 1219 pmol/g and 1212 pmol/g
same,"Lung tissue Compound 1 concentration, Inferior lobe",[10]; [15],209 pmol/g and 93 pmol/g and 110 pmol/g
same,"Lung tissue Compound 1 concentration, Left lobe",[10]; [15],106 pmol/g and 116 pmol/g and 140 pmol/g
same,"Lung tissue Compound 1 concentration, Superior lobe",[10]; [15],398 pmol/g and 167 pmol/g and 305 pmol/g
same,"Lung tissue Compound 1 concentration, Middle lobe","[10]; 5 mg Compound 1 aerosol, 8 hr post-dose",73 pmol/g and 137 pmol/g and 99 pmol/g
same,Plasma Compound 1 Concentration,[10]; 1 hr post-dose,39.1 ng/mL and 53.7 ng/mL
same,Plasma Compound 1 Concentration,[10]; 3 hr post-dose,20.8 ng/mL and 14.8 ng/mL
same,Plasma Compound 1 Concentration,[10]; 8 hr post-dose,15.4 ng/mL and 12.6 ng/mL
same,Kp,in vivo,~20
same,Kp at 8 h,in vivo,~12
same,concentration at 1 h,in vivo; [16],41.8 ng/mL
same,concentration at 3 h,in vivo; [16],18 ng/mL
same,concentration at 8 h,in vivo; [16],13.3 ng/mL
same,concentration at 1 h,in vivo; [17],32.5 ng/mL
same,concentration at 3 h,in vivo; [17],18.5 ng/mL
same,concentration at 8 h,in vivo; [17],11.9 ng/mL
same,toxicology profile,Oral GLP toxicology,favorable toxicology profile
same,genotoxicity / mitotoxicity,[11],not genotoxic or mitotoxic
same,generally well-tolerated dose,[12],up to 2400 mg
"NC(=O)c1cn([C@@H]2O[C@H](CO)[C@@H](O)[C@H]2O)c2ncnc(N)c12 [Sangivamycin, reference compound]",SI: Selectivity Index (CC50/EC50),[2]; Neutral Red in Vero E6 cells,1.9
same,EC50,"[2]; Neutral Red in Vero E6 cells, day 3 post-infection",7 nM
same,CC50 at 3 days,[3],10 nM
same,EC90,[4],120 nM
same,CC50 at 3 days,[5],120 nM
